Patent US20250235451A1, “Methods of Delaying Pain Progression And Treating Prostate Cancer” (ASTRAZENECA AB, priority 2020, published 2025)

Tests used:
[1] = system: metastatic castration-resistant prostate cancer (mCRPC) with BRCA1, BRCA2, and/or ATM alterations; assay: Phase III trial NCT02987543, efficacy in Cohort A (alterations in BRCA1, BRCA2 and/or ATM); type: in vivo, human
From the text: (§1) Patient population. In clinical trial NCT02987543, eligible patients were male, aged ≥18 years with histological diagnosis of prostate cancer, confirmed mCRPC, whose disease had progressed after one or more treatments with new hormonal agent (NHA) (e.g., enzalutamide or abiraterone, administered for metastatic or non-metastatic castration-resistant prostate cancer, as well as metastatic hormone-sensitive prostate cancer). Prior taxane chemotherapy was allowed. Men without prior surgical castration were required to continue luteinizing-hormone-releasing hormone analog therapy. Patients had adequate organ and bone marrow function. Full eligibility criteria are provided in the trial protocol. All patients provided written informed consent. An investigational clinical trial assay, based on the FoundationOne® CDx next-generation sequencing test was used to prospectively identify patients with qualifying deleterious or suspected deleterious alterations in one or more of the 15 prespecified genes selected for their direct or indirect role in HRR: BRCA1, BRCA2, ATM, BRIP1, BARD1, CDK12, CHEK1, CHEK2, FANCL, PALB2, PPP2R2A, RAD51B, RAD51C, RAD51D, and RAD54L. Tumor testing was conducted centrally using archival or recent biopsy tissue from primary or metastatic disease. Presence of deleterious or suspected deleterious alteration by the central tumor test was required for eligibility, irrespective of the zygosity of the alteration.
(§2) Study design. This was a prospective, randomized, open-label, Phase III study. Eligible patients were included in one of two cohorts depending on their qualifying gene alteration. Cohort A included patients with BRCA1, BRCA2 and/or ATM alterations, regardless of co-occurring qualifying alterations in any of the other genes. Cohort B included patients with alterations in any of the other 12 genes. The overall population comprised patients from Cohort A and Cohort B (i.e., patients with a qualifying alteration in any of the 15 prespecified genes).
(§3) Randomization was stratified by previous taxane use (yes/no) and measurable disease (yes/no). Treatment was continued until objective radiographic disease progression assessed by a third-party vendor blinded independent central review (BICR), or unacceptable toxicity. Patients randomized to the control arm were eligible to cross over to olaparib treatment upon BICR-confirmed radiographic progression.
(§4) The primary endpoint was rPFS assessed by BICR in patients with BRCA1, BRCA2, and/or ATM alterations (Cohort A). rPFS was defined as the time from randomization until soft-tissue disease progression (by Response Evaluation Criteria in Solid Tumors (RECIST) v1.1), bone lesion progression (by Prostate Cancer Working Group 3 (PCWG3) criteria) or death. A prespecified sensitivity analysis of rPFS based on investigator assessment was performed. rPFS by BICR in the overall population was also a secondary endpoint.
(§5) Additional secondary endpoints evaluated included confirmed radiographic objective response rate (ORR), time to pain progression (TTPP), overall survival (OS), prostate-specific antigen (PSA) response (PSA50 response) and circulating tumor cell (CTC) conversion rate. ORR was assessed among evaluable patients who had measurable disease at baseline as assessed by BICR using RECIST v1.1 (responses were also assessed by BICR using RECIST v1.1, were confirmed and required absence of progression on bone scan assessed by PCWG3). OS is defined as time from randomization to time point at which death due to any cause occurs. A pre-specified sensitivity analysis for the crossover effect on OS was performed. Safety was assessed in the overall population through reporting of Common Terminology Criteria for Adverse Events (CTCAE) v4.0 and collection of clinical chemistry and hematology parameters.
(§6) Time to pain progression (TTPP) was based on Brief Pain Inventory-Short Form item 3 ('worst pain in 24 hours) and initiation of opiate analgesic use (Analgesic Quantification Algorithm score). […]

[2] = system: metastatic castration-resistant prostate cancer (mCRPC) with a qualifying alteration in any of 15 prespecified HRR genes; assay: Phase III trial NCT02987543, efficacy in the overall population (Cohorts A + B); type: in vivo, human
From the text: as §1, §2, §3, §4, §5, §6

[3] = Phase III trial NCT02987543, safety (adverse events, CTCAE v4.0) in the overall population; type: in vivo
Method: as §5
Blood samples for PSA assessments were collected at baseline, every 4 weeks until week 24, then every 8 weeks until study treatment discontinuation, and for CTC analyses were collected at baseline and then every 8 weeks until study treatment discontinuation. Overall survival was assessed every 12 weeks after progression. Adverse events (AEs) were graded according to the National Cancer Institute Common Terminology Criteria for Adverse Events version 4.0. […]
Statistical analysis. Efficacy data were analyzed on an intent-to-treat basis and safety data were reported for all patients who received ≥1 dose of trial treatment. […] For time-to-event endpoints, rPFS, time to pain progression, and OS, P-values were calculated using log-rank tests, stratified by stratification factors. […] The Kaplan-Meier method was used to calculate medians for each trial arm. Logistic regression models adjusted for stratification factors were used to analyze objective responses. A multiple-testing procedure was used to control for the study-wide type 1 error rate. […] For OS, the two-sided 5% level of alpha was split at the interim (0.01) and final (0.047) analyses using an O′Brien-Fleming spending function.

[4] = overall population, evaluable patients
[5] = overall population, olaparib vs control

SMILES: O=C(c1cc(Cc2n[nH]c(=O)c3ccccc23)ccc1F)N1CCN(C(=O)C2CC2)CC1 [Olaparib, 4-[(3-{[4-(cyclopropane-carbonyl)piperazine-1-yl]carbonyl}-4-fluorophenyl)methyl]-2H-phthalazin-1-one]
- Median TTPP (months), sensitivity analysis including any death as an event [1]: 17.22 months
- median OS (interim analysis) ([1]; data maturity 38%): 18.50 months
- CTC conversion ([1]; evaluable patients): 29.9%
- PSA50 response ([1]; evaluable patients): 43.1%
- confirmed objective response rate ([1]; evaluable patients): 33.3%
- reduction in risk for disease progression or death ([1]; olaparib vs control): 66%
- median rPFS (radiographic progression-free survival) by BICR ([1]; primary endpoint): 7.39 months
- Median TTPP (months), sensitivity analysis including any death as an event ([2]; Cohorts A + B (overall population)): 11.89 months
- TTPP Pain severity, Events (%) ([2]; overall population): 9.4%
- TTPP Pain severity, Events n ([2]; overall population): 24 n
- TTPP Worst pain, Events (%) ([2]; overall population): 12.5%
- TTPP Worst pain, Events n ([2]; overall population): 32 n
- Time to Opiate use, Events (%) ([2]; overall population): 37.1%
- Time to Opiate use, Events n ([2]; overall population): 65 n
- Time to Opiate use, Median (m) ([2]; overall population): 18.0 m
- median rPFS by BICR ([2]; overall population): 5.82 months
- TTPP Pain severity, 6-month rate (%) ([2]; overall population, 6 months): 88.7%
- TTPP Worst pain, 6-month rate (%) (free of pain progression) ([2]; overall population, 6 months): 85.2%
- Time to Opiate use, 6-month rate (%) ([2]; overall population, 6 months): 25%
- TTPP Pain severity, 12-month rate (%) ([2]; overall population, 12 months): 81.0%
- TTPP Worst pain, 12-month rate (%) ([2]; overall population, 12 months): 76.3%
- Time to Opiate use, 12-month rate (%) ([2]; overall population, 12 months): 41%
- Median OS at interim analysis ([2]; overall population, data maturity 41%): 17.51 months
- CTC conversion [2, 4]: 26.8%
- PSA50 response [2, 4]: 30.0%
- confirmed objective response rate [2, 4]: 21.7%
- TTPP Pain severity, HR [2, 5]: 0.71
- TTPP Worst pain, HR [2, 5]: 0.64
- Time to Opiate use, HR [2, 5]: 0.67
- median progression free survival greater than for subjects receiving the standard of care treatment ([2]; overall subject population): at least 2 months
- Anemia, All grades, (%) [3]: (46.5) %
- Anemia, Grade ≥3, (%) [3]: (21.5) %
- Any adverse event, All grades, (%) [3]: (95.3) %
- Any adverse event, Grade ≥3, (%) [3]: (50.8) %
- Arthralgia, All grades, (%) [3]: (9.4) %
- Arthralgia, Grade ≥3, (%) [3]: (0.4) %
- Back pain, All grades, (%) [3]: (13.7) %
- Back pain, Grade ≥3, (%) [3]: (0.8) %
- Cough, All grades, (%) [3]: (10.9) %
- Decreased appetite, All grades, (%) [3]: (30.1) %
- Decreased appetite, Grade ≥3, (%) [3]: (1.2) %
- Diarrhea, All grades, (%) [3]: (21.1) %
- Diarrhea, Grade ≥3, (%) [3]: (0.8) %
- Discontinuation of intervention due to adverse event, (%) [3]: (18.0) %
- Dose reduction due to adverse event, (%) [3]: (22.3) %
- Dyspnea, All grades, (%) [3]: (10.2) %
- Dyspnea, Grade ≥3, (%) [3]: (2.3) %
- Fatal adverse event, (%) [3]: (3.9) %
- Fatigue & asthenia, All grades, (%) [3]: (41.0) %
- Fatigue & asthenia, Grade ≥3, (%) [3]: (2.7) %
- Interruption of intervention due to adverse event, (%) [3]: (44.9) %
- Nausea, All grades, (%) [3]: (41.4) %
- Nausea, Grade ≥3, (%) [3]: (1.2) %
- Peripheral edema, All grades, (%) [3]: (12.5) %
- Urinary tract infection, All grades, (%) [3]: (7.0) %
- Urinary tract infection, Grade ≥3, (%) [3]: (1.6) %
- Vomiting, All grades, (%) [3]: (18.4) %
- Vomiting, Grade ≥3, (%) [3]: (2.3) %
- patients reporting new primary malignancies [3]: 1 n
- pulmonary embolism events, % [3]: 4.3%
- pulmonary embolism events, number ([3]; none were fatal): 11
